Data as given in ChEMBL document CHEMBL1138006, “Identification of 2,3-diaryl-pyrazolo[1,5-b]pyridazines as potent and selective cyclooxygenase-2 inhibitors” (Bioorg Med Chem Lett, 2004).

What was measured:
[1] = Half life after iv administration of 2 mg/kg to rat; type: ADME, organism-based; set-up: dose 2 mg/kg, route intravenous; conditions: in vivo
[2] = molecular target: Prostaglandin G/H synthase 1 (Homo sapiens, UniProt P23219); type: cell-based, COS
Description: Inhibition of human cyclooxygenase-1 expressed in COS cells

[3] = Distribution after iv administration of 2 mg/kg to rat; type: ADME, organism-based; set-up: dose 2 mg/kg, route intravenous; conditions: in vivo, read-out: Distribution
[4] = Oral bioavailability after oral administration of 5 mg/kg to rat; type: ADME, organism-based; conditions: in vivo, read-out: Bioavailabiility
[5] = Clearance after iv administration of 2 mg/kg to rat; type: ADME, organism-based; set-up: dose 2 mg/kg, route intravenous; conditions: in vivo
[6] = molecular target: T1, Prostaglandin G/H synthase 2 (Homo sapiens, UniProt P35354); type: cell-based, COS
T1 sequence (P35354 whole entry): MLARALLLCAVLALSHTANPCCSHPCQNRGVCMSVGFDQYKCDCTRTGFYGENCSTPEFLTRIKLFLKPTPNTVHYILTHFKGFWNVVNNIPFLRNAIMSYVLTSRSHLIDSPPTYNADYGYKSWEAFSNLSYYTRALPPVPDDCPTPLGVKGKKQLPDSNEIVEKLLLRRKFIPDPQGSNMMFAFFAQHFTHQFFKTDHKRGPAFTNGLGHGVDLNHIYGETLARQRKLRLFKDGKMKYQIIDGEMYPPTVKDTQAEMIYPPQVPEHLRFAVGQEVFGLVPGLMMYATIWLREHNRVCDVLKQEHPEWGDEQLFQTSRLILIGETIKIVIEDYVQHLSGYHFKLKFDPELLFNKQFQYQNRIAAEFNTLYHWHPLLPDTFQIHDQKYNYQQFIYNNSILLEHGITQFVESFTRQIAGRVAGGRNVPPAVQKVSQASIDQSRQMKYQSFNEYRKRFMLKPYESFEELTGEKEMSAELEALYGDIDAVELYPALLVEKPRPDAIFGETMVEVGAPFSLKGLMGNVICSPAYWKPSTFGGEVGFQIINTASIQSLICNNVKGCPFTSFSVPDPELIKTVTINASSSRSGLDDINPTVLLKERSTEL
Description: Inhibition of human cyclooxygenase-2 expressed in COS cells

[7] = molecular target: T2, Prostaglandin G/H synthase 2 (Rattus norvegicus) (UniProt P35355); assay: Percent reversal of FCA-induced arthritis in rats at 10 mg/kg; type: functional, organism-based; set-up: dose 10 mg/kg
T2 sequence (whole entry): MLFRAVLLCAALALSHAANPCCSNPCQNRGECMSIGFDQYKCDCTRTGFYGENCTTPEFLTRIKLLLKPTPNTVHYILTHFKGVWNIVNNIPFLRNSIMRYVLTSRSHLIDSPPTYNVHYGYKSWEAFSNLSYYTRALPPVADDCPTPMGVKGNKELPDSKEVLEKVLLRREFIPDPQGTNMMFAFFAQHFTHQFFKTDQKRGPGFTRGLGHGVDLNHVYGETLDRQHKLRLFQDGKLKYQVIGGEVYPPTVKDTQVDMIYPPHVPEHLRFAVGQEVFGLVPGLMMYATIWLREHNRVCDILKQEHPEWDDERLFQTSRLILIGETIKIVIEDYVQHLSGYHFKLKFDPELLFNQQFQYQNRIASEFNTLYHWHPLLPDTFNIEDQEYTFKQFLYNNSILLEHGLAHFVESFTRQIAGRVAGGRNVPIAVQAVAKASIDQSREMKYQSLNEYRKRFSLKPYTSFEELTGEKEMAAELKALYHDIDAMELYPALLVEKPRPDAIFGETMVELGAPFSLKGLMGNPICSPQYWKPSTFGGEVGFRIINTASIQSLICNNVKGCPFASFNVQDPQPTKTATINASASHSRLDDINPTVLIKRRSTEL

Chain of Prostaglandin G/H synthase 1 (P23219 whole entry): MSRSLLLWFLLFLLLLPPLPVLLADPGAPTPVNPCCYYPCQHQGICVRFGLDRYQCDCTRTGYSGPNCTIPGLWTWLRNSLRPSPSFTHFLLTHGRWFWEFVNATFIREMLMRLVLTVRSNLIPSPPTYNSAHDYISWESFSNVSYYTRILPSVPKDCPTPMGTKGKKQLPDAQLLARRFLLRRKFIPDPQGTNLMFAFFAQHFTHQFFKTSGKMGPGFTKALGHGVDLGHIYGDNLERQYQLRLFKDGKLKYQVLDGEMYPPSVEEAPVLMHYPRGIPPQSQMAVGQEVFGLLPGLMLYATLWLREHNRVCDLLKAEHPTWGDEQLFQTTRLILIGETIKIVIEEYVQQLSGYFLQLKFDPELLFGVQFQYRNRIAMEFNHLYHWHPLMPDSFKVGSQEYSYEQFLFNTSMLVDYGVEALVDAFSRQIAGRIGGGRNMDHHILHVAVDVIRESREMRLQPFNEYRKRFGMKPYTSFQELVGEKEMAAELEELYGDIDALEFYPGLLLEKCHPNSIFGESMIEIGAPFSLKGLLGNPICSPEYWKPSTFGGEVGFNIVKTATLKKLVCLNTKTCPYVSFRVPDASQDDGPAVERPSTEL

Row | Compound | half-life [1] | IC50 [2] | Vd [3] | bioavailability [4] | clearance [5] | IC50 [6] | Reversal activity [7]
1 | CCOc1ccc(-c2nn3ncccc3c2-c2ccc(S(C)(=O)=O)cc2)cc1 [GW-406381] | 4.1 h | > 84200 nM | 3 L/kg | 80% | 9 mL/min/kg | – | –
2 | CCOc1ccc2c(-c3ccc(S(C)(=O)=O)cc3)c(-c3ccc(F)cc3)nn2n1 | – | > 100000 nM | – | – | – | 43 nM | 11%
3 | COc1ccc2c(-c3ccc(S(C)(=O)=O)cc3)c(-c3ccc(F)cc3)nn2n1 | – | > 35100 nM | – | – | – | 51 nM | 10%
4 | COc1ccc2c(-c3ccc(S(C)(=O)=O)cc3)c(-c3ccc(C)cc3)nn2n1 | – | > 100000 nM | – | – | – | 50 nM | 15%
5 | CCc1ccc2c(-c3ccc(S(C)(=O)=O)cc3)c(-c3ccc(F)cc3)nn2n1 | – | > 100000 nM | – | – | – | 48 nM | 40%
6 | CCOc1ccc(-c2nn3nc(S(C)(=O)=O)ccc3c2-c2ccc(S(N)(=O)=O)cc2)cc1 | – | > 100000 nM | – | – | – | 264 nM | 0%
7 | Cc1ccc2c(-c3ccc(S(C)(=O)=O)cc3)c(-c3ccccc3)nn2n1 | – | 43900 nM | – | – | – | < 31 nM | 1%
8 | Cc1ccc(-c2ncc(Cl)cc2-c2ccc(S(C)(=O)=O)cc2)cn1 [ETORICOXIB] | – | > 100000 nM | – | – | – | – | –
9 | NS(=O)(=O)c1ccc(-c2c(-c3ccc(F)cc3)nn3ncccc23)cc1 | – | 24100 nM | – | – | – | < 10 nM | 0%
10 | CS(=O)(=O)c1ccc(-c2c(-c3ccccc3)nn3ncccc23)cc1 | – | > 100000 nM | – | – | – | 2 nM | –
11 | Cc1ccc(-c2nn3ncccc3c2-c2ccc(S(C)(=O)=O)cc2)cc1 | – | > 19100 nM | – | – | – | 17 nM | 23%
12 | Cc1ccc2c(-c3ccc(S(C)(=O)=O)cc3)c(-c3ccc(F)cc3)nn2n1 | – | > 100000 nM | – | – | – | 24 nM | –
13 | CCOc1ccc(-c2nn3nc(SC)ccc3c2-c2ccc(S(N)(=O)=O)cc2)cc1 | – | 8630 nM | – | – | – | 13 nM | –
14 | CC(C)Oc1ccc2c(-c3ccc(S(C)(=O)=O)cc3)c(-c3ccc(F)cc3)nn2n1 | – | > 100000 nM | – | – | – | 57 nM | –
15 | CS(=O)(=O)c1ccc(-c2c(-c3cccc(F)c3)nn3ncccc23)cc1 | – | 58300 nM | – | – | – | 34 nM | 78%
16 | COc1ccc2c(-c3ccc(S(N)(=O)=O)cc3)c(-c3ccc(F)cc3)nn2n1 | – | 2610 nM | – | – | – | 26 nM | –
17 | CS(=O)(=O)c1ccc(-c2c(-c3ccc(F)cc3)nn3ncccc23)cc1 | – | > 100000 nM | – | – | – | 39 nM | –
18 | NS(=O)(=O)c1ccc(-c2c(-c3ccc(OC(F)(F)F)cc3)nn3ncccc23)cc1 | – | > 100000 nM | – | – | – | 388 nM | 92%
